Values of other authors in patent US20050244461A1, “Controlled release drug delivery systems and methods for treatment of an eye” (Allergan, Inc., priority 2004, published 2005).

Conditions: in vivo efficacy; 25 mg hydrocortisone equivalent to 1 mg dexamethasone; Goodman and Gilman

## C[C@]12CCC(=O)C=C1CC[C@@H]1[C@@H]2[C@@H](O)C[C@@]2(C)[C@H]1CC[C@]2(O)C(=O)CO [hydrocortisone]
  Potency relative to dexamethasone: approximately twentyfivefold less potent than dexamethasone
